From US12558428B2, “Heterobifunctional compounds and their use in treating disease” (Halda Therapeutics OpCo, Inc., priority 2024, dated 2026)

Columns and labels:
Format in all cases: cell-based
[1] = system: T-Rex 293 cells lacking increased expression of estrogen receptor alpha protein; test: Cellular growth inhibition assay, T-Rex 293 cells, (−) doxycycline; conditions: T-REx-293, 72 h, Table 7-A; T-Rex 293 cells without doxycycline (lacking increased ERα expression); 72 hours; CellTiter-Glo; read-out: (−) Dox GI50
Outline: (§1)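 Cells of an inducible ERα-expressing T-Rex 293 clone are seeded in charcoal-dextran FBS medium with or without 3 ng/mL doxycycline, then treated after 24 h with compound dilutions (0.5% DMSO) for 72 h. Growth inhibition is measured by CellTiter-Glo luminescence and expressed as GI50.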

[2] = system: T-Rex 293 cells having increased expression of estrogen receptor alpha protein; test: Cellular growth inhibition assay, T-Rex 293 cells, (+) doxycycline; conditions: T-REx-293, 72 h, Table 7-A; T-Rex 293 cells with doxycycline (increased ERα expression); 72 hours; CellTiter-Glo; read-out: (+) Dox GI50
Outline: as §1

[3] = system: MCF7 cells (ATCC #HTB-22); test: Cellular growth inhibition assay, MCF7 cells purchased from ATCC; conditions: Homo sapiens, MCF7, 144 h, Table 8-A; MCF7 cells purchased from ATCC; six days; CellTiter-Glo; read-out: GI50
Outline: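 GI50 values come from a four-parameter fit of CellTiter-Glo 2.0 luminescence after six days of compound exposure at 37° C. Seeding density depended on the source: 225 cells/well for ECACC MCF7, 1,500 for ATCC. Medium was RPMI 1640 with 10% FBS and 0.2 U/ml insulin.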

Row | GI50 [3] [nM] | Structure (SMILES) | GI50 [1] [nM] | GI50 [2] [nM]
1 | 50 to 500 | Cc1sc2c(c1C)C(c1ccc(N3CCC(O)(CN4CCN(c5ccc(C6=C(c7ccc(Cl)cc7Cl)CCCc7cc(O)ccc76)cc5)CC4)CC3)cc1)=N[C@@H](C)c1nnc(C)n1-2 [IV-19] | 500 to 2500 | < 50
2 | < 50 | Cc1sc2c(c1C)C(c1ccc(N3CCC(O)(CN4CCN(c5ccc(C6=C(c7ccccc7Cl)CCCc7cc(O)ccc76)cc5)CC4)CC3)cc1)=N[C@@H](C)c1nnc(C)n1-2 [IV-20] | 500 to 2500 | < 50
3 | 50 to 500 | Cc1sc2c(c1C)C(c1ccc(N3CCC(F)(CN4CCC(c5ccc(C6=C(c7ccc(Cl)cc7Cl)CCCc7cc(C(=O)O)ccc76)cc5)CC4)CC3)cc1)=N[C@@H](C)c1nnc(C)n1-2 [IV-21] | 500 to 2500 | < 50
4 | < 50 | Cc1sc2c(c1C)C(c1ccc(N3CC(CN4CC(CN5CC(c6ccc(C7=C(c8ccccc8)CCCc8cc(C(=O)O)ccc87)cc6)C5)C4)C3)cc1)=N[C@@H](C)c1nnc(C)n1-2 [IV-22] | 50 to 500 | < 50
5 | < 50 | Cc1sc2c(c1C)C(c1ccc(N3CC(CC4CN(CC5CN(c6ccc(C7=C(c8ccccc8)CCCc8cc(C(=O)O)ccc87)cc6)C5)C4)C3)cc1)=N[C@@H](C)c1nnc(C)n1-2 [IV-23] | 50 to 500 | < 50
6 | < 50 | Cc1sc2c(c1C)C(c1ccc(N3CC(C[C@H]4CC[C@H](CN5CC(c6ccc(C7=C(c8ccccc8)CCCc8cc(C(=O)O)ccc87)cc6)C5)CC4)C3)cc1)=N[C@@H](C)c1nnc(C)n1-2 [IV-24] | 500 to 2500 | < 50
7 | < 50 | Cc1sc2c(c1C)C(c1ccc(N3CC(CN4CCN(CC5CN(c6ccc(C7=C(c8ccc(F)cc8F)CCCc8cc(C(=O)O)ccc87)cc6)C5)CC4)C3)cc1)=N[C@@H](C)c1nnc(C)n1-2 [IV-25] | 50 to 500 | < 50
8 | < 50 | Cc1sc2c(c1C)C(c1ccc(N3CCC(O)(CN4CCN(c5ccc(C6=C(c7ccc(F)cc7F)CCCc7cc(C(=O)O)ccc76)cc5)CC4)CC3)cc1)=N[C@@H](C)c1nnc(C)n1-2 [IV-26] | 500 to 2500 | < 50
9 | 50 to 500 | Cc1sc2c(c1C)C(c1ccc(N3CCC(F)(CN4CCN(c5ccc(C6=C(c7ccc(Cl)cc7Cl)CCCc7cc(C(=O)O)ccc76)cc5)CC4)CC3)cc1)=N[C@@H](C)c1nnc(C)n1-2 [IV-27] | 500 to 2500 | 50 to 500
10 | < 50 | Cc1sc2c(c1C)C(c1ccc(N3CCC(O)(CN4CCN(c5ccc(C6=C(c7ccccc7)CCCc7cc(C(=O)O)ccc76)c(F)c5)CC4)CC3)cc1)=N[C@@H](C)c1nnc(C)n1-2 [IV-28] | 500 to 2500 | < 50
11 | < 50 | Cc1sc2c(c1C)C(c1ccc(N3CC(CC4(O)CCN(CC5CN(c6ccc(C7=C(c8ccccc8)CCCc8cc(C(=O)O)ccc87)cc6)C5)CC4)C3)cc1)=N[C@@H](C)c1nnc(C)n1-2 [IV-29] | 50 to 500 | < 50
12 | 50 to 500 | Cc1sc2c(c1C)C(c1ccc(N3CCC(O)(CN4CCN(c5ccc(C6=C(c7ccc(Cl)cc7Cl)CCCc7cc(C(=O)O)ccc76)cc5)CC4)CC3)cc1)=N[C@H](Cc1ncco1)c1nnc(C)n1-2 [IV-30] | 500 to 2500 | 500 to 2500
13 | < 50 | Cc1sc2c(c1C)C(c1ccc(N3CCC(O)(CN4CCN(c5ccc(C6=C(c7ccc(Cl)cc7Cl)CCCc7cc(C(=O)O)ccc76)cc5)CC4)CC3)cc1)=N[C@@H](Cc1ncco1)c1nnc(C)n1-2 [IV-31] | 50 to 500 | < 50
14 | 50 to 500 | Cc1sc2c(c1C)C(c1ccc(C3CN(C[C@H]4CC[C@H](CN5CC(c6ccc(C7=C(c8ccccc8)CCCc8cc(C(=O)O)ccc87)cc6)C5)CC4)C3)cc1)=N[C@@H](C)c1nnc(C)n1-2 [IV-32] | 50 to 500 | < 50
15 | < 50 | Cc1sc2c(c1C)C(c1ccc(N3CCC(O)(CN4CCN(c5ccc(C6=C(c7ccccc7)CCCc7cc(C(=O)O)ccc76)cc5F)CC4)CC3)cc1)=N[C@@H](C)c1nnc(C)n1-2 [IV-33] | 500 to 2500 | < 50
